Data taken from patent publication EP1285920A1, “C10 Ester sustituted taxanes as antitumor agents” (Florida State University Research Foundation, Inc., priority 2001, dated 2003).
Like-named read-outs stand apart in the source and are kept apart here.

Tested on: HCT116
Test: In Vitro cytotoxicity measured by the cell colony formation assay
Assay type: cell-based, human
Details: read-out: IN VITRO ID 50 HCT116
Procedure: Four hundred cells (HCT116) were plated in 60 mm Petri dishes containing 2.7 mL of medium (modified McCoy's 5a medium containing 10% fetal bovine serum and 100 units/mL penicillin and […] streptomycin). The cells were incubated in a CO2 incubator at 37 °C for 5 h for attachment to the bottom of Petri dishes. The compounds identified in Example 2 were made up fresh in medium at ten times the final concentration, and then 0.3 mL of this stock solution was added to the 2.7 mL of medium in the dish. The cells were then incubated with drugs for 72 h at 37 °C. At the end of incubation the drug-containing media were decanted, the dishes were rinsed with 4 mL of Hank's Balance Salt Solution (HBSS), 5 mL of fresh medium was added, and the dishes were returned to the incubator for colony formation. The cell colonies were counted using a colony counter after incubation for 7 days.

[1] = HCT116 colony formation, 72 h with drug, colonies counted after 7 days, ID50 = concentration producing 50% inhibition of colony formation

| SMILES | IC50 (Homo sapiens, HCT-116) [nM] | IC50 [1] [nM] |
| --- | --- | --- |
| CC(=O)OC12COC1CC(O)C1(C)C(=O)C(OC(=O)C(C)C)C3=C(C)C(OC(=O)C(O)C(NC(=O)OC(C)(C)C)c4ccncc4)CC(O)(C(OC(=O)c4ccccc4)C21)C3(C)C (centres unmarked) [Compound 2255] | < 1 |  |
| CC(=O)OC12COC1CC(O)C1(C)C(=O)C(OC(=O)C(C)C)C3=C(C)C(OC(=O)C(O)C(NC(=O)OC(C)(C)C)c4ccco4)CC(O)(C(OC(=O)c4ccccc4)C21)C3(C)C (centres unmarked) [Compound 2269] | < 1 |  |
| CC(=O)OC12COC1CC(O)C1(C)C(=O)C(OC(=O)C(C)C)C3=C(C)C(OC(=O)C(O)C(NC(=O)OC(C)(C)C)c4ccoc4)CC(O)(C(OC(=O)c4ccccc4)C21)C3(C)C (centres unmarked) [Compound 2273] | < 1 |  |
| CC(=O)OC12COC1CC(O)C1(C)C(=O)C(OC(=O)C(C)C)C3=C(C)C(OC(=O)C(O)C(NC(=O)OC(C)(C)C)c4cccs4)CC(O)(C(OC(=O)c4ccccc4)C21)C3(C)C (centres unmarked) [Compound 2287] | < 1 |  |
| CC(=O)OC12COC1CC(O)C1(C)C(=O)C(OC(=O)C(C)C)C3=C(C)C(OC(=O)C(O)C(NC(=O)OC(C)(C)C)c4ccsc4)CC(O)(C(OC(=O)c4ccccc4)C21)C3(C)C (centres unmarked) [Compound 2291] | < 1 |  |
| CC(=O)OC12COC1CC(O)C1(C)C(=O)C(OC(=O)C(C)C)C3=C(C)C(OC(=O)C(O)C(NC(=O)OC(C)(C)C)C(C)C)CC(O)(C(OC(=O)c4ccccc4)C21)C3(C)C (centres unmarked) [Compound 2306] | < 10 |  |
| CC(=O)OC12COC1CC(O)C1(C)C(=O)C(OC(=O)C(C)C)C3=C(C)C(OC(=O)C(O)C(NC(=O)OC(C)(C)C)C4CCC4)CC(O)(C(OC(=O)c4ccccc4)C21)C3(C)C (centres unmarked) [Compound 2319] | < 10 |  |
| CC(=O)OC12COC1CC(O)C1(C)C(=O)C(OC(=O)C(C)C)C3=C(C)C(OC(=O)C(O)C(NC(=O)OC(C)(C)C)c4ccc([N+](=O)[O-])cc4)CC(O)(C(OC(=O)c4ccccc4)C21)C3(C)C (centres unmarked) [Compound 2320] | < 1 |  |
| CC=CC(=O)OC1C(=O)C2(C)C(O)CC3OCC3(OC(C)=O)C2C(OC(=O)c2ccccc2)C2(O)CC(OC(=O)C(O)C(C=C(C)C)NC(=O)OC(C)(C)C)C(C)=C1C2(C)C (centres unmarked) [Compound 2332] |  | < 1 |
| CC=CC(=O)OC1C(=O)C2(C)C(O)CC3OCC3(OC(C)=O)C2C(OC(=O)c2ccccc2)C2(O)CC(OC(=O)C(O)C(NC(=O)OC(C)(C)C)c3ccccn3)C(C)=C1C2(C)C (centres unmarked) [Compound 2348] |  | < 1 |
| CC=CC(=O)OC1C(=O)C2(C)C(O)CC3OCC3(OC(C)=O)C2C(OC(=O)c2ccccc2)C2(O)CC(OC(=O)C(O)C(NC(=O)OC(C)(C)C)c3cccnc3)C(C)=C1C2(C)C (centres unmarked) [Compound 2353] |  | < 10 |
| CC=CC(=O)OC1C(=O)C2(C)C(O)CC3OCC3(OC(C)=O)C2C(OC(=O)c2ccccc2)C2(O)CC(OC(=O)C(O)C(NC(=O)OC(C)(C)C)c3ccncc3)C(C)=C1C2(C)C (centres unmarked) [Compound 2366] |  | < 1 |
| CC=CC(=O)OC1C(=O)C2(C)C(O)CC3OCC3(OC(C)=O)C2C(OC(=O)c2ccccc2)C2(O)CC(OC(=O)C(O)C(NC(=O)OC(C)(C)C)c3ccco3)C(C)=C1C2(C)C (centres unmarked) [Compound 2379] |  | < 1 |
| CC=CC(=O)OC1C(=O)C2(C)C(O)CC3OCC3(OC(C)=O)C2C(OC(=O)c2ccccc2)C2(O)CC(OC(=O)C(O)C(NC(=O)OC(C)(C)C)c3ccoc3)C(C)=C1C2(C)C (centres unmarked) [Compound 2380] |  | < 1 |
| CC=CC(=O)OC1C(=O)C2(C)C(O)CC3OCC3(OC(C)=O)C2C(OC(=O)c2ccccc2)C2(O)CC(OC(=O)C(O)C(NC(=O)OC(C)(C)C)C(C)C)C(C)=C1C2(C)C (centres unmarked) [Compound 2413] |  | < 10 |
| CC=CC(=O)OC1C(=O)C2(C)C(O)CC3OCC3(OC(C)=O)C2C(OC(=O)c2ccccc2)C2(O)CC(OC(=O)C(O)C(NC(=O)OC(C)(C)C)C3CCC3)C(C)=C1C2(C)C (centres unmarked) [Compound 2424] |  | < 10 |
| CC=CC(=O)OC1C(=O)C2(C)C(O)CC3OCC3(OC(C)=O)C2C(OC(=O)c2ccccc2)C2(O)CC(OC(=O)C(O)C(NC(=O)OC(C)(C)C)c3ccc([N+](=O)[O-])cc3)C(C)=C1C2(C)C (centres unmarked) [Compound 2439] |  | < 10 |
| CC(=O)O[C@@]12CO[C@@H]1C[C@H](O)[C@@]1(C)C(=O)[C@H](OC(=O)C=C(C)C)C3=C(C)[C@@H](OC(=O)[C@H](O)[C@H](C=C(C)C)NC(=O)OC(C)(C)C)C[C@@](O)([C@@H](OC(=O)c4ccccc4)[C@H]21)C3(C)C [Compound 2455] | < 10 |  |

| SMILES | IC50 (Homo sapiens, HCT-116) [nM] | IC50 [1] [nM] |
| --- | --- | --- |
| CC(=O)O[C@@]12CO[C@@H]1C[C@H](O)[C@@]1(C)C(=O)[C@H](OC(=O)C=C(C)C)C3=C(C)[C@@H](OC(=O)[C@H](O)[C@@H](NC(=O)OC(C)(C)C)c4ccccn4)C[C@@](O)([C@@H](OC(=O)c4ccccc4)[C@H]21)C3(C)C [Compound 2464] | < 1 |  |
| CC(=O)O[C@@]12CO[C@@H]1C[C@H](O)[C@@]1(C)C(=O)[C@H](OC(=O)C=C(C)C)C3=C(C)[C@@H](OC(=O)[C@H](O)[C@@H](NC(=O)OC(C)(C)C)c4ccncc4)C[C@@](O)([C@@H](OC(=O)c4ccccc4)[C@H]21)C3(C)C [Compound 2472] | < 1 |  |
| CC(=O)O[C@@]12CO[C@@H]1C[C@H](O)[C@@]1(C)C(=O)[C@H](OC(=O)C=C(C)C)C3=C(C)[C@@H](OC(=O)[C@H](O)[C@@H](NC(=O)OC(C)(C)C)c4ccco4)C[C@@](O)([C@@H](OC(=O)c4ccccc4)[C@H]21)C3(C)C [Compound 2488] | < 1 |  |
| CC(=O)O[C@@]12CO[C@@H]1C[C@H](O)[C@@]1(C)C(=O)[C@H](OC(=O)C=C(C)C)C3=C(C)[C@@H](OC(=O)[C@H](O)[C@@H](NC(=O)OC(C)(C)C)c4ccoc4)C[C@@](O)([C@@H](OC(=O)c4ccccc4)[C@H]21)C3(C)C [Compound 2499] | < 1 |  |
| CC(=O)O[C@@]12CO[C@@H]1C[C@H](O)[C@@]1(C)C(=O)[C@H](OC(=O)C=C(C)C)C3=C(C)[C@@H](OC(=O)[C@H](O)[C@@H](NC(=O)OC(C)(C)C)c4cccs4)C[C@@](O)([C@@H](OC(=O)c4ccccc4)[C@H]21)C3(C)C [Compound 2503] | < 1 |  |
| CC(=O)O[C@@]12CO[C@@H]1C[C@H](O)[C@@]1(C)C(=O)[C@H](OC(=O)C=C(C)C)C3=C(C)[C@@H](OC(=O)[C@H](O)[C@@H](NC(=O)OC(C)(C)C)c4ccsc4)C[C@@](O)([C@@H](OC(=O)c4ccccc4)[C@H]21)C3(C)C [Compound 2511] | < 1 |  |
| CC(=O)O[C@@]12CO[C@@H]1C[C@H](O)[C@@]1(C)C(=O)[C@H](OC(=O)C=C(C)C)C3=C(C)[C@@H](OC(=O)[C@H](O)[C@@H](NC(=O)OC(C)(C)C)c4ccccc4)C[C@@](O)([C@@H](OC(=O)c4ccccc4)[C@H]21)C3(C)C [Compound 2520] | < 10 |  |
| CC(=O)O[C@@]12CO[C@@H]1C[C@H](O)[C@@]1(C)C(=O)[C@H](OC(=O)C3CC3)C3=C(C)[C@@H](OC(=O)[C@H](O)[C@@H](NC(=O)OC(C)(C)C)c4ccoc4)C[C@@](O)([C@@H](OC(=O)c4ccccc4)[C@H]21)C3(C)C [Compound 2781] | < 1 |  |
| CC(=O)O[C@@]12CO[C@@H]1C[C@H](O)[C@@]1(C)C(=O)[C@H](OC(=O)C3CC3)C3=C(C)[C@@H](OC(=O)[C@H](O)[C@@H](NC(=O)OC(C)(C)C)c4ccsc4)C[C@@](O)([C@@H](OC(=O)c4ccccc4)[C@H]21)C3(C)C [Compound 2794] | < 1 |  |
| CC(=O)O[C@@]12CO[C@@H]1C[C@H](O)[C@@]1(C)C(=O)[C@H](OC(=O)C3CC3)C3=C(C)[C@@H](OC(=O)[C@H](O)[C@@H](NC(=O)OC(C)(C)C)c4ccccn4)C[C@@](O)([C@@H](OC(=O)c4ccccc4)[C@H]21)C3(C)C [Compound 2802] | < 1 |  |
| CC(=O)O[C@@]12CO[C@@H]1C[C@H](O)[C@@]1(C)C(=O)[C@H](OC(=O)C3CC3)C3=C(C)[C@@H](OC(=O)[C@H](O)[C@@H](NC(=O)OC(C)(C)C)c4ccncc4)C[C@@](O)([C@@H](OC(=O)c4ccccc4)[C@H]21)C3(C)C [Compound 2813] | < 1 |  |
| CC(=O)O[C@@]12CO[C@@H]1C[C@H](O)[C@@]1(C)C(=O)[C@H](OC(=O)C3CC3)C3=C(C)[C@@H](OC(=O)[C@H](O)[C@@H](NC(=O)c4ccccc4)c4ccoc4)C[C@@](O)([C@@H](OC(=O)c4ccccc4)[C@H]21)C3(C)C [Compound 2826] | < 1 |  |
| CC(=O)O[C@@]12CO[C@@H]1C[C@H](O)[C@@]1(C)C(=O)[C@H](OC(=O)C3CC3)C3=C(C)[C@@H](OC(=O)[C@H](O)[C@@H](NC(=O)c4ccccc4)c4ccsc4)C[C@@](O)([C@@H](OC(=O)c4ccccc4)[C@H]21)C3(C)C [Compound 2838] | < 1 |  |
| CC(=O)O[C@@]12CO[C@@H]1C[C@H](O)[C@@]1(C)C(=O)[C@H](OC(=O)C3CC3)C3=C(C)[C@@H](OC(=O)[C@H](O)[C@@H](NC(=O)c4ccccc4)c4ccccn4)C[C@@](O)([C@@H](OC(=O)c4ccccc4)[C@H]21)C3(C)C [Compound 2844] | < 10 |  |
| CC(=O)O[C@@]12CO[C@@H]1C[C@H](O)[C@@]1(C)C(=O)[C@H](OC(=O)C3CC3)C3=C(C)[C@@H](OC(=O)[C@H](O)[C@@H](NC(=O)c4ccccc4)c4ccncc4)C[C@@](O)([C@@H](OC(=O)c4ccccc4)[C@H]21)C3(C)C [Compound 2855] | < 1 |  |
| CC(=O)O[C@@]12CO[C@@H]1C[C@H](O)[C@@]1(C)C(=O)[C@H](OC(=O)C3CC3)C3=C(C)[C@@H](OC(=O)[C@H](O)[C@@H](NC(=O)c4ccccc4)c4ccc([N+](=O)[O-])cc4)C[C@@](O)([C@@H](OC(=O)c4ccccc4)[C@H]21)C3(C)C [Compound 2869] | < 10 |  |
| CCC(=O)O[C@H]1C(=O)[C@@]2(C)[C@H]([C@H](OC(=O)c3ccccc3)[C@]3(O)C[C@H](OC(=O)[C@H](O)[C@@H](NC(=O)c4ccco4)c4cccs4)C(C)=C1C3(C)C)[C@]1(OC(C)=O)CO[C@@H]1C[C@@H]2O [Compound 3053] | < 1 |  |
